Measurements as given in ChEMBL document CHEMBL1201862, “PubChem BioAssay data set” (2004).
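48-hour exposure; five concentrations; linearly interpolated endpoints. The concentration for 50% growth inhibition is given as GI50.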 Activity calls are given as the source filed them. Rule as the data show it: active = GI50 up to about 1.1 µM and inactive = higher.

What was measured:
Experiment in all cases: NCI anticancer screen, dose series, 48 h
[1] = tested on: SW-620
[2] = tested on: PC-3
[3] = tested on: Hs-578T
[4] = tested on: SK-MEL-5
[5] = tested on: U-251
[6] = tested on: M14
[7] = tested on: K562
[8] = tested on: SF-539
[9] = tested on: UACC-257
[10] = tested on: NCI/ADR-RES
[11] = tested on: NCI-H460
[12] = tested on: TK-10
[13] = tested on: SN12C
[14] = tested on: MDA-MB-435
[15] = tested on: DU-145
[16] = tested on: OVCAR-4
[17] = tested on: COLO 205
[18] = tested on: SK-OV-3
[19] = tested on: LOX IMVI
[20] = tested on: SNB-75

| SMILES | GI50 [1] | GI50 [2] | GI50 [3] | GI50 [4] | GI50 [5] | GI50 [6] | GI50 [7] | GI50 [8] | GI50 [9] | GI50 [10] | GI50 [11] | GI50 [12] | GI50 [13] | GI50 [14] | GI50 [15] | GI50 [16] | GI50 [17] | GI50 [18] | GI50 [19] | GI50 [20] |
| --- | --- | --- | --- | --- | --- | --- | --- | --- | --- | --- | --- | --- | --- | --- | --- | --- | --- | --- | --- | --- |
| CCOP(=O)(O)C(C)(C)NC | > 100 µM (inactive) | > 100 µM (inactive) | > 100 µM (inactive) | > 100 µM (inactive) | > 100 µM (inactive) | > 100 µM (inactive) | > 100 µM (inactive) | > 100 µM (inactive) | > 100 µM (inactive) | > 100 µM (inactive) | > 100 µM (inactive) | > 100 µM (inactive) | > 100 µM (inactive) | > 100 µM (inactive) | > 100 µM (inactive) | > 100 µM (inactive) | > 100 µM (inactive) | > 100 µM (inactive) | > 100 µM (inactive) | – |
| CC(Nc1cc(Cl)cc(Cl)c1)c1ccncc1 (stereo not given) | 17.4 µM (inactive) | 12.1 µM (inactive) | 35.2 µM (inactive) | 15.4 µM (inactive) | 17.9 µM (inactive) | 17.6 µM (inactive) | 13.6 µM (inactive) | 21.8 µM (inactive) | 22.8 µM (inactive) | 20.5 µM (inactive) | 16.9 µM (inactive) | 41.8 µM (inactive) | > 10 µM (inactive) | 22.2 µM (inactive) | > 10 µM (inactive) | 38.9 µM (inactive) | 15.6 µM (inactive) | – | 10.9 µM (inactive) | 23.3 µM (inactive) |
| N#Cc1c(N)oc(-c2cccc([N+](=O)[O-])c2)c1C#N | 24.1 µM (inactive) | 62.8 µM (inactive) | 32.8 µM (inactive) | 19.6 µM (inactive) | 27.5 µM (inactive) | 46.9 µM (inactive) | – | 23.2 µM (inactive) | 21.8 µM (inactive) | 30.5 µM (inactive) | – | 22.1 µM (inactive) | 38.6 µM (inactive) | 31.2 µM (inactive) | > 100 µM (inactive) | – | 20.9 µM (inactive) | > 100 µM (inactive) | 31.6 µM (inactive) | 21.9 µM (inactive) |
| CCOC(=O)C(c1c[nH]c2ccccc12)(c1c[nH]c2ccccc12)c1c[nH]c2ccccc12 | 19.8 µM (inactive) | 19.7 µM (inactive) | 23.7 µM (inactive) | 34.4 µM (inactive) | 36.9 µM (inactive) | 28.3 µM (inactive) | 12.9 µM (inactive) | 42.4 µM (inactive) | 34 µM (inactive) | 82.6 µM (inactive) | 27.3 µM (inactive) | 41.3 µM (inactive) | 43 µM (inactive) | 18.7 µM (inactive) | 39.8 µM (inactive) | – | 15.7 µM (inactive) | 30.1 µM (inactive) | 31.9 µM (inactive) | 20.4 µM (inactive) |
| O=[N+]([O-])c1cc2ccc1OCc1cccc(n1)COc1ccc(cc1[N+](=O)[O-])/C=N\CCCCCCCC/N=C\2 | > 100 µM (inactive) | > 100 µM (inactive) | > 100 µM (inactive) | > 100 µM (inactive) | > 100 µM (inactive) | > 100 µM (inactive) | > 100 µM (inactive) | > 100 µM (inactive) | > 100 µM (inactive) | > 100 µM (inactive) | > 100 µM (inactive) | > 100 µM (inactive) | > 100 µM (inactive) | > 100 µM (inactive) | > 100 µM (inactive) | > 100 µM (inactive) | > 100 µM (inactive) | – | > 100 µM (inactive) | > 100 µM (inactive) |
| O=C(CCCN1CCC2(CC1)CC(=O)N(N1CCOCC1)C2=O)c1ccc(F)cc1 | > 100 µM (inactive) | > 100 µM (inactive) | > 100 µM (inactive) | > 100 µM (inactive) | > 100 µM (inactive) | > 100 µM (inactive) | > 100 µM (inactive) | > 100 µM (inactive) | > 100 µM (inactive) | > 100 µM (inactive) | > 100 µM (inactive) | > 100 µM (inactive) | > 100 µM (inactive) | > 100 µM (inactive) | > 100 µM (inactive) | – | > 100 µM (inactive) | > 100 µM (inactive) | > 100 µM (inactive) | > 100 µM (inactive) |
| CCOP(=O)(OCC)C(F)(F)Cc1cnc(C)c2c1COC(C)(C)O2 | > 10 µM (inactive) | > 10 µM (inactive) | > 10 µM (inactive) | > 10 µM (inactive) | > 10 µM (inactive) | > 10 µM (inactive) | > 10 µM (inactive) | > 10 µM (inactive) | > 10 µM (inactive) | > 10 µM (inactive) | > 10 µM (inactive) | > 10 µM (inactive) | > 10 µM (inactive) | > 10 µM (inactive) | > 10 µM (inactive) | > 10 µM (inactive) | > 10 µM (inactive) | > 10 µM (inactive) | – | > 10 µM (inactive) |
| O=C1CC(c2cccc(Cl)c2)Nc2ccc(N3CCCC3)cc21 (stereo not given) | 0.0266 µM (active) | 0.0343 µM (active) | 0.01 µM (active) | 0.0305 µM (active) | 0.0314 µM (active) | 0.028 µM (active) | 0.0863 µM (active) | 0.0263 µM (active) | 0.0687 µM (active) | 0.0274 µM (active) | 0.0506 µM (active) | 0.942 µM (active) | 0.0552 µM (active) | 0.00484 µM (active) | 0.0391 µM (active) | 6.89 µM (inactive) | 0.194 µM (active) | 0.193 µM (active) | 0.0518 µM (active) | – |
